Experimental findings from US11434232B2, “ATR inhibitor and application thereof” (WUXI BIOCITY BIOPHARMACEUTICS CO., LTD., priority 2018, dated 2022) are described below.

The target of data set [1] is human ATR kinase (Homo sapiens (Human), UniProt Q13535). Put plainly: In vitro evaluation of inhibitory activity on human ATR kinase (HTRF, ATR/ATRIP(h), GST-cMyc-p53 substrate). It is filed as biochemical. Particulars: 50 nM GST-cMyc-p53, 30 min room temperature. As for the experimental part:
IC50 values were determined to evaluate the inhibitory activity of the tested compounds on human ATR kinase.
ATR/ATRIP(h) was incubated in assay buffer containing 50 nM GST-cMyc-p53 and Mg/ATP (according to concentration required). The reaction was initiated by adding Mg/ATP mixture. After incubating for 30 min at room temperature, a stop solution containing EDTA to was added to terminate the reaction. Finally, detecting buffer containing d^2-labeled anti-GST monoclonal antibody and europium-labeled anti-phospho Ser15 antibody against phosphorylated p^53 were added. Then the plate was read in time-resolved fluorescence mode and homogeneous time resolution was performed.
The fluorescence (HTRF) signal was determined according to the formula HTRF=10000×(Em665 nm/Em620 nm).
IC50 data was analyzed using XLFit version 5.3 (ID Business Solutions). Non-linear regression analysis was used to fit the sigmoidal dose response (variable slope) curve.

For data set [2], the system named is tumor cell line LoVo. Put plainly: In vitro cell viability test (CellTiter-Glo), LoVo cell proliferation inhibition. It is filed as cell-based. The settings on record: Homo sapiens. As for the experimental part: In this experiment, inhibitory effect of the compounds on cell proliferation was investigated by testing influence on cell viability in vitro in tumor cell line LoVo.
CellTiter-Glo Luminescence Cell Viability Test
The following protocols were performed according to instruction of PromegaCellTiter-Glo Luminescence cell viability test Kit (Promega-G7573). • (1) Thawing CellTiter-Glo buffer and allowing it to acclimate to room temperature. • (2) Allowing CellTiter-Glo substrate to acclimate to room temperature. • (3) Adding CellTiter-Glo buffer to a bottle of CellTiter-Glo substrate to dissolve the substrate to prepare CellTiter-Glo working solution. • (4) Vortexing slowly to full dissolution. • (5) Removing the cell culture plate and balancing it to room temperature for 30 min. • (6) Adding 50 μL (equivalent to half volume of cell culture medium in each well) of CellTiter-Glo working solution to each well, wrapping the cell plate with aluminum foil to protect from light. • (7) Shaking the culture plate on an orbital shaker for 2 min to induce cell lysis. • (8) Placing the culture plate at room temperature for 10 min to stabilize the luminescence signal. • (9) Detecting the luminescence signal on SpectraMax i3× of Molecular Devices plate reader. Data Analysis
The following formula was used to calculate the inhibition rate of the test compound (Inhibition rate, IR): IR(%)=(1−(RLU Compound−RLU Blank control)/(RLU Vehicle control−RLU Blank control))*100%.
The inhibition rates of different concentrations of compounds were calculated in Excel, and GraphPad Prism software was used to make the inhibition curve and calculate relevant parameters, including the minimum inhibition rate, the maximum inhibition rate and IC50.

The nature of data set [3]: Pharmacokinetic properties in vivo in female Balb/c Nude mice. Details: species or system mouse. Particulars: for AUC(0-t) / clearance / half-life / C0 / Vd / Cmax: mouse, plasma; for C0: drug concentration at 0 min; for Vd: read-out: Vdss; for F: oral bioavailability, 10 mg/kg oral vs 1 mg/kg IV. Here is the method:
Experimental method: The purpose of this study was to determine the pharmacokinetic parameters of the compounds and calculate the oral bioavailability in female Balb/c Nude mice.
The project involved 6 female Balb/c Nude mice. 3 mice were administered intravenously at a dose of 1 mg/kg, and plasma samples were collected at 0 h (before administration) and 0.0833, 0.25, 0.5, 1, 2, 4, 6, 8 and 24 h after administration, other 3 mice were given by oral gavage at a dose of 10 mg/kg or 25 mg/kg, and plasma samples were collected at 0 h (before dosing) and 0.5, 1, 2, 3, 4, 6, 8, 24 h after administration. Then LC/MS/MS analysis was performed for the collected samples and data was collected. The collected analysis data was calculated for relevant pharmacokinetic parameters with Phoenix WinNonlin 6.2.1 software.

In data set [4] the test system is human colorectal cancer LoVo cell subcutaneous xenograft. As to the kind of experiment: In vivo efficacy in colorectal cancer LoVo CDX model. Details: species or system mouse. The settings on record: 25 mg/kg orally twice a day, day 17 of administration, vs vehicle control group. The source says:
LoVo is a colorectal adenocarcinoma tumor cell line with MRE11A mutation (MRE11A is a key component of DNA double-strand break repairing ATM signaling pathway), which is sensitive to ATR inhibitor. In this experiment, the colorectal cancer LoVo CDX model was used to verify the inhibitory effect of ATR inhibitor as monotherapy on tumors with defect in ATM signaling pathway.
Human colorectal cancer LoVo cells (ECACC, CatLog: 87060101), in vitro monolayer culture, culture conditions: Ham's F-12 medium with 10% fetal bovine serum, 100 U/mL penicillin, 100 μg/mL streptomycin and 2 mM glutamine, 37° C., 5% CO2 culture. General passage with trypsin-EDTA digestion was performed twice a week. When the cell saturation was 80%-90%, the cells were collected, counted, and inoculated. 0.1 mL (10×10^6) of LoVo cells were subcutaneously inoculated into the right back of each nude mouse. When the mean tumor volume reached 173 mm^3, grouping and administration were initiated.
25.51 mg of WX15 was weighed and dissolved in 0.500 mL of DMSO, which were added with 2.000 mL of propylene glycol and 2.500 mL of deionized water, vortexed for homogeneous mixing, adjusted to PH=6.0, to obtain a clear solution. The preparing processes of Compound WX42, Compound WX45, Compound WX46 were referred to Compound WX15.
Dosage: All test compounds were administered orally at 25 mg/kg twice a day, with an interval of 8 h in a day.
A vernier caliper was used to measure the tumor diameter twice a week. The formula for calculating the tumor volume: V=0.5a×b^2, a and b represent the long and short diameters of the tumor, respectively. Antitumor efficacy of the compound was evaluated by TGI (%) or relative tumor proliferation rate T/C (%). Relative tumor proliferation rate T/C (%)=TRTV/CRTV×100% (TRTV: mean RTV value of treatment group; CRTV: mean RTV value of negative control group). The relative tumor volume (relative tumor volume, RTV) was calculated based on the tumor measurement results and the calculation formula was RTV=Vt/V0, where V0 is the tumor volume measured at grouping administration (i.e. D0), Vt is the tumor volume at a measurement, and data on the same day was used for TRTV and CRTV.
TGI (%) reflects the tumor growth inhibition rate. TGI (%)=[1−(mean tumor volume at the end of administration in a treatment group−mean tumor volume at the beginning of administration in this treatment group)/(mean tumor volume at the end of treatment in the solvent control group−mean tumor volume at the beginning of treatment in the solvent control group)]×100%.

human ATR kinase, sequence (Q13535 whole entry): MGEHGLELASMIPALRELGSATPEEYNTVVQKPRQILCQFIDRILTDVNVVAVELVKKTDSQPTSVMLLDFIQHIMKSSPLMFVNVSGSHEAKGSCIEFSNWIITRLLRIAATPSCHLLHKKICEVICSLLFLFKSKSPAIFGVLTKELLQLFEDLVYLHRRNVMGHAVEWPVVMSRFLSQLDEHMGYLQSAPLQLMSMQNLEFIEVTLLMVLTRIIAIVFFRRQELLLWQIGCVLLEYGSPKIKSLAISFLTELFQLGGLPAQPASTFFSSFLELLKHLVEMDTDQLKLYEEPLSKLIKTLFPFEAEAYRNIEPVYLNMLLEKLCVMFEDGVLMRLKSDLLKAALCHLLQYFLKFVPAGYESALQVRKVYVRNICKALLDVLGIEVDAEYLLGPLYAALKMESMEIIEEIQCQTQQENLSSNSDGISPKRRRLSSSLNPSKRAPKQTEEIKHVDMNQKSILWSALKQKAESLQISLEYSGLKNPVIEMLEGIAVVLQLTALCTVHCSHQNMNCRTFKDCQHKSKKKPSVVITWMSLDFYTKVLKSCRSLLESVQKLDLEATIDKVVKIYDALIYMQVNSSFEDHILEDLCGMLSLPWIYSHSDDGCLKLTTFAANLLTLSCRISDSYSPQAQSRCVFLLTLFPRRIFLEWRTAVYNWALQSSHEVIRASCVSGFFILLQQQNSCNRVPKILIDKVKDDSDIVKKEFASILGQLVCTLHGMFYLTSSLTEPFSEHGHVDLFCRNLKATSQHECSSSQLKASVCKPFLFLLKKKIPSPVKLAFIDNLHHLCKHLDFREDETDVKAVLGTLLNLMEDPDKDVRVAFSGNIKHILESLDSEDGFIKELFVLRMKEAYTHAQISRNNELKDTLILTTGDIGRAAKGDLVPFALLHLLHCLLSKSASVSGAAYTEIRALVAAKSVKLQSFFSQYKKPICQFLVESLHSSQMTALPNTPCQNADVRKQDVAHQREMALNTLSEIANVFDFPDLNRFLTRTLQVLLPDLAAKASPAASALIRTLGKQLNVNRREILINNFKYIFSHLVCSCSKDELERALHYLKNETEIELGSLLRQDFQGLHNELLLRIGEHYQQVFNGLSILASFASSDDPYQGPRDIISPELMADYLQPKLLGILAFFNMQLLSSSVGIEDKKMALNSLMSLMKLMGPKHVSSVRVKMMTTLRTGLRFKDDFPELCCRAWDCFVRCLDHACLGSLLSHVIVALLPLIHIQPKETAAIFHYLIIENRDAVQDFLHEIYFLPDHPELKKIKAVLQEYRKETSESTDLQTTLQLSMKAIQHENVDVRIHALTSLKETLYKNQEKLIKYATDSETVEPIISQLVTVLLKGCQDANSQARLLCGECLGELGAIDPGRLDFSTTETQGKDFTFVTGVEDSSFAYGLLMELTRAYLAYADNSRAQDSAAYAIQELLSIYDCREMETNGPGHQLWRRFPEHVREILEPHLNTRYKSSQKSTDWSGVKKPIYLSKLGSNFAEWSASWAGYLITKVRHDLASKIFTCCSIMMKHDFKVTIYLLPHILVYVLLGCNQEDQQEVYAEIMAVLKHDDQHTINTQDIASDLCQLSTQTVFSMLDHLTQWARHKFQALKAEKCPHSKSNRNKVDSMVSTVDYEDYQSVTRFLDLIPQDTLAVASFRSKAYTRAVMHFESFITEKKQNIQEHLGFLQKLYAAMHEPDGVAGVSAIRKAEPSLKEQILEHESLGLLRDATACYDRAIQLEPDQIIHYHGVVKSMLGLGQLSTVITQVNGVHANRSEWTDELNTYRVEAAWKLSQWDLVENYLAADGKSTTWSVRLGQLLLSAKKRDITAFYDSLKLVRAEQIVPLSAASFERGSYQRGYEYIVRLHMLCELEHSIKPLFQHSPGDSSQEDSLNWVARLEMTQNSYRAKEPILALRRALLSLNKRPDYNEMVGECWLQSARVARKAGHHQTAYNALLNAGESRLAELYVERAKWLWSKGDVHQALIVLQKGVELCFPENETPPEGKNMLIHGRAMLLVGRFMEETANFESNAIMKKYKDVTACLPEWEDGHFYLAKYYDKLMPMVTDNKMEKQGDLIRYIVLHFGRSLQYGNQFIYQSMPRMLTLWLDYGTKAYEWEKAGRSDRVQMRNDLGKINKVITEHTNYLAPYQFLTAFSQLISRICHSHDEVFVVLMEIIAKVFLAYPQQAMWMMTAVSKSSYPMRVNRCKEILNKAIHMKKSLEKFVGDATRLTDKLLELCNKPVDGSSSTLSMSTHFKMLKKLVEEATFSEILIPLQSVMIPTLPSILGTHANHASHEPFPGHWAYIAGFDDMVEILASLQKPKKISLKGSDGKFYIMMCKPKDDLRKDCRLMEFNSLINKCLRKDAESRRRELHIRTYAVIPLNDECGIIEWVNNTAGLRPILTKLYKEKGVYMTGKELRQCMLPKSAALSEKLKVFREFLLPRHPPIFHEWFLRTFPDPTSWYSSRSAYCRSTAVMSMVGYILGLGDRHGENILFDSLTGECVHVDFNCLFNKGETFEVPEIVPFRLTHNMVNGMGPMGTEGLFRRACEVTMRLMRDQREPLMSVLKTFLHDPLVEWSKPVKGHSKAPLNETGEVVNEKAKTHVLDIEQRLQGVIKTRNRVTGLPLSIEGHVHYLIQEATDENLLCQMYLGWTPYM
human ATR kinase, sequence (Q8WXE1 whole entry partner): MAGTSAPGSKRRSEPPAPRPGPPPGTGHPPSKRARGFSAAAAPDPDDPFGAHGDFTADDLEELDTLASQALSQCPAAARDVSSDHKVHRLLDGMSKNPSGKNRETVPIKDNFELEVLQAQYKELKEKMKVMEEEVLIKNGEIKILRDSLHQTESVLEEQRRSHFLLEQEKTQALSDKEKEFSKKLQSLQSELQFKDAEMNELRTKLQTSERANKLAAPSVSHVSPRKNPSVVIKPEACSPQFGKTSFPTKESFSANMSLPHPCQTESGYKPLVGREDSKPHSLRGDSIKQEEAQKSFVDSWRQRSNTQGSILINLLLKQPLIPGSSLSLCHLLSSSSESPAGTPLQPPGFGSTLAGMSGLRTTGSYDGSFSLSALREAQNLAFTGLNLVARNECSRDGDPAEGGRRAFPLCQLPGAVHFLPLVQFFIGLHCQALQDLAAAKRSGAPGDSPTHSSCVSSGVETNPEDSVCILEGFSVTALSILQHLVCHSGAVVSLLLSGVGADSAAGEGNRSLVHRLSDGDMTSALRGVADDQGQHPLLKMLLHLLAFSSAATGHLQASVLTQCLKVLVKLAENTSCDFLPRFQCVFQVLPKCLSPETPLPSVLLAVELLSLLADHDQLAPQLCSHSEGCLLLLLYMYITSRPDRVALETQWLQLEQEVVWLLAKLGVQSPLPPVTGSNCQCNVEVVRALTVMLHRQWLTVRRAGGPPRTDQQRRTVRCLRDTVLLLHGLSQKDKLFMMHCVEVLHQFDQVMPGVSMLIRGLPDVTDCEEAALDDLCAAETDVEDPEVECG

Consider `C[C@@H]1COCCN1c1cc(-c2ccnn2C)nc(-c2ccnc3[nH]ccc23)n1` [WX15], for which the IC50 in data set [1] was found to be 159 nM. For the same compound, the IC50 in data set [2] is 410 nM. Further, in data set [3] (1 mg/kg IV), the AUC(0-t) was 0.905 µM·h, the clearance was 47 mL/min/kg, the half-life is 0.78 h and the C0 is 1.96 µM. The Vd in data set [3] (1 mg/kg IV) was found to be 2.21 L/kg. In data set [3] (10 mg/kg oral gavage), this compound gave an AUC(0-t) of 8.75 µM·h, a peak concentration (Cmax) of 4.56 µM and a half-life of 1.23 h. The F in data set [3] turned out to be 96.0%. In addition, in data set [4], the “T/C (relative tumor proliferation rate)” value came out at 46.7% and the “TGI (tumor growth inhibition rate)” value was determined as 66.8%.

Take `Cc1cnn(C)c1-c1cc(N2CCOC[C@H]2C)nc(-c2cc(CO)cc3[nH]ccc23)n1` [WX42]: the IC50 in data set [1] is 29 nM. Further, the half-maximal inhibitory concentration (IC50) in data set [2] stood at 510 nM. In data set [3] (1 mg/kg IV), this compound had an AUC(0-t) of 1.09 µM·h, a clearance of 34.3 mL/min/kg, a half-life of 2.57 h and a C0 of 1.96 µM. For the same compound, in data set [3] (1 mg/kg IV), the Vd worked out at 2.21 L/kg. In data set [3] (10 mg/kg oral gavage), the AUC(0-t) was 15 µM·h, the highest level (Cmax) was 6.5 µM and the half-life was 2.02 h. In data set [3], the F is reported as 129.0%. Moreover, in data set [4], the “T/C (relative tumor proliferation rate)” value was found to be 27.8% and the “TGI (tumor growth inhibition rate)” value is recorded as 90.7%.

`Cc1nnc(C)n1-c1cc(N2CCOC[C@H]2C)nc(-c2cccc3[nH]ccc23)n1` [WX45] had an IC50 in data set [1] of 69 nM. In data set [2], this compound registered an IC50 of 750 nM. In data set [3] (1 mg/kg IV), this compound gave an AUC(0-t) of 0.88 µM·h, a clearance of 48.3 mL/min/kg, a half-life of 0.99 h and a C0 of 1.58 µM. Besides, the Vd in data set [3] (1 mg/kg IV) came out at 2.59 L/kg. Further, in data set [3] (10 mg/kg oral gavage), the AUC(0-t) was determined as 10.9 µM·h, the Cmax was found to be 7.72 µM and the half-life was 1.69 h. In addition, the F in data set [3] is reported as 123.0%. Further, in data set [4], the “T/C (relative tumor proliferation rate)” value is 32.3% and the “TGI (tumor growth inhibition rate)” value was found to be 79.9%.

Compound `Cc1nnc(C)n1-c1cc(N2CCOC[C@H]2C)nc(-c2cc(F)cc3[nH]ccc23)n1` [WX46] gave an IC50 in data set [1] of 31 nM. The compound also registered an IC50 in data set [2] of 350 nM. In data set [3] (25 mg/kg oral gavage), this compound showed an AUC(0-t) of 26.2 µM·h, a Cmax of 10.6 µM and a half-life of 0.892 h. In data set [4], the “T/C (relative tumor proliferation rate)” value was determined as 43.8% and the “TGI (tumor growth inhibition rate)” value was found to be 79.9%.
